Data as given in ChEMBL document CHEMBL3826966, “A chromatography-free isolation of rohitukine from leaves of Dysoxylum binectariferum: Evaluation for in vitro cytotoxicity, Cdk inhibition and physicochemical properties” (Bioorg Med Chem Lett, 2016).
Values after ≈ are worked out from the molar mass of the structure shown.

What was measured:
[1] = biological target: Testis-specific serine/threonine-protein kinase 1 (Homo sapiens) (UniProt Q9BXA7); assay: Inhibition of human TSSK1 (1 to 367 residues) assessed as remaining enzyme activity at 50 uM after 30 mins by 33P-ATP filter-binding assay
[2] = biological target: CDK9/cyclin T1 (Homo sapiens) (UniProt O60563+P50750); assay: Inhibition of human Cdk9/T1 using YSPTSPSYSPTSPSYSPTSPKKK peptide as substrate at 0.5 uM after 30 mins by 33P-ATP filter-binding assay; assay type: protein-complex assay
[3] = Stability in SGF solution at 120 ug/ml after 8 hrs by RP-HPLC analysis; assay type: physicochemical; details: simulated gi fluid
[4] = Cell cycle arrest in human HL60 cells assessed as accumulation at G2 phase at 1 uM (reference value: 5 %); assay type: functional, cell-based; details: HL-60
[5] = biological target: MAP kinase-interacting serine/threonine-protein kinase 2 (Homo sapiens) (UniProt Q9HBH9); assay: Inhibition of human MNK2 assessed as remaining enzyme activity at 50 uM after 30 mins by 33P-ATP filter-binding assay
MAP4K2 = assay: Inhibition of human GCK (2 to 812 residues) assessed as remaining enzyme activity at 50 uM after 30 mins by 33P-ATP filter-binding assay
[6] = biological target: Serine/threonine-protein kinase D1 (Homo sapiens) (UniProt Q15139); assay: Inhibition of human PKD1 (2 to 912 residues) assessed as remaining enzyme activity at 50 uM after 30 mins by 33P-ATP filter-binding assay
[7] = biological target: Homeodomain-interacting protein kinase 1 (Homo sapiens) (UniProt Q86Z02); assay: Inhibition of human HIPK1 (158 to 555 residues) assessed as remaining enzyme activity at 50 uM after 30 mins by 33P-ATP filter-binding assay
[8] = biological target: Serine/threonine-protein kinase 33 (Homo sapiens) (UniProt Q9BYT3); assay: Inhibition of human STK33 (1 to 514 residues) assessed as remaining enzyme activity at 50 uM after 30 mins by 33P-ATP filter-binding assay
[9] = biological target: Fibroblast growth factor receptor 1 (Homo sapiens) (UniProt P11362); assay: Inhibition of human FGFR1 (400 to 820 residues) assessed as remaining enzyme activity at 50 uM after 30 mins by 33P-ATP filter-binding assay
[10] = Cell cycle arrest in human HL60 cells assessed as accumulation at S phase at 5 uM (reference value: 36 %); assay type: functional, cell-based; details: HL-60
[11] = Cytotoxicity against human BxPC3 cells assessed as cell growth inhibition after 48 hrs by MTT assay; assay type: functional; details: BXPC-3, 48 h
[12] = biological target: Tyrosine-protein kinase Lck (Homo sapiens) (UniProt P06239); assay: Inhibition of human LCK (2 to 509 residues) assessed as remaining enzyme activity at 50 uM after 30 mins by 33P-ATP filter-binding assay
[13] = biological target: Tyrosine-protein kinase BTK (Homo sapiens) (UniProt Q06187); assay: Inhibition of human BTK (2 to 659 residues) assessed as remaining enzyme activity at 50 uM after 30 mins by 33P-ATP filter-binding assay
[14] = Stability in pH 4 buffer at 120 ug/ml after 8 hrs by RP-HPLC analysis; assay type: physicochemical; details: pH 4, 8 h
[15] = biological target: Serine/threonine-protein kinase Chk1 (Homo sapiens) (UniProt O14757); assay: Inhibition of human CHK1 (1 to 476 residues) assessed as remaining enzyme activity at 50 uM after 30 mins by 33P-ATP filter-binding assay
[16] = Thermodynamic equilibrium solubility in stimulated intestinal fluid at 120 ug/ml at pH 6.8 by HPLC analysis; assay type: ADME; details: simulated intestinal fluid, read-out: Therm_solubility
[17] = biological target: Ephrin type-B receptor 2 (Homo sapiens) (UniProt P29323); assay: Inhibition of human EPHB2 (560 to 987 residues) assessed as remaining enzyme activity at 50 uM after 30 mins by 33P-ATP filter-binding assay
[18] = biological target: Mitogen-activated protein kinase 12 (Homo sapiens) (UniProt P53778); assay: Inhibition of human p38gamma MAPK (1 to 367 residues) assessed as remaining enzyme activity at 50 uM after 30 mins by 33P-ATP filter-binding assay
[19] = biological target: RAC-alpha serine/threonine-protein kinase (Homo sapiens) (UniProt P31749); assay: Inhibition of human PKBalpha assessed as remaining enzyme activity at 50 uM after 30 mins by 33P-ATP filter-binding assay
[20] = biological target: Tyrosine-protein kinase JAK2 (Homo sapiens) (UniProt O60674); assay: Inhibition of human JAK2 assessed as remaining enzyme activity at 50 uM after 30 mins by 33P-ATP filter-binding assay
[21] = biological target: MAP kinase-interacting serine/threonine-protein kinase 1 (Homo sapiens) (UniProt Q9BUB5); assay: Inhibition of human MNK1 (2 to 424 residues) assessed as remaining enzyme activity at 50 uM after 30 mins by 33P-ATP filter-binding assay
[22] = biological target: AMP-activated protein kinase, AMPK (Homo sapiens) (UniProt P54646+O43741+P54619+Q9UGJ0+Q9Y478+Q13131+Q9UGI9); assay: Inhibition of human AMPK assessed as remaining enzyme activity at 50 uM after 30 mins by 33P-ATP filter-binding assay; assay type: protein-complex assay
[23] = biological target: CDK2/Cyclin A2 (Homo sapiens) (UniProt P24941+P20248); assay: Inhibition of human Cdk2/cyclin A at 0.5 uM using Histone H1 substrate after 30 mins by 33P-ATP filter-binding assay; assay type: protein-complex assay
[24] = Cell cycle arrest in human HL60 cells assessed as accumulation at G1 phase at 1 uM (reference value: 59 %); assay type: functional, cell-based; details: HL-60
[25] = biological target: Proto-oncogene tyrosine-protein kinase Src (Homo sapiens) (UniProt P12931); assay: Inhibition of human Src (1 to 536 residues) assessed as remaining enzyme activity at 50 uM after 30 mins by 33P-ATP filter-binding assay
[26] = biological target: Ribosomal protein S6 kinase beta-1 (Homo sapiens) (UniProt P23443); assay: Inhibition of human S6K1 assessed as remaining enzyme activity at 50 uM after 30 mins by 33P-ATP filter-binding assay
[27] = biological target: Dual specificity protein kinase TTK (Homo sapiens) (UniProt P33981); assay: Inhibition of human TTK (1 to 857 residues) assessed as remaining enzyme activity at 50 uM after 30 mins by 33P-ATP filter-binding assay
[28] = Cell cycle arrest in human HL60 cells assessed as accumulation at G2 phase at 10 uM (reference value: 5 %); assay type: functional, cell-based; details: HL-60
[29] = biological target: Serine/threonine-protein kinase TAO1 (Homo sapiens) (UniProt Q7L7X3); assay: Inhibition of human TAO1 (1 to 356 residues) assessed as remaining enzyme activity at 50 uM after 30 mins by 33P-ATP filter-binding assay
[30] = biological target: Serine/threonine-protein kinase Nek6 (Homo sapiens) (UniProt Q9HC98); assay: Inhibition of human NEK6 (8 to 313 residues) assessed as remaining enzyme activity at 50 uM after 30 mins by 33P-ATP filter-binding assay
Serine/threonine-protein kinase Nek6 (Homo sapiens), sequence (Q9HC98 whole entry, the tested form may be a part): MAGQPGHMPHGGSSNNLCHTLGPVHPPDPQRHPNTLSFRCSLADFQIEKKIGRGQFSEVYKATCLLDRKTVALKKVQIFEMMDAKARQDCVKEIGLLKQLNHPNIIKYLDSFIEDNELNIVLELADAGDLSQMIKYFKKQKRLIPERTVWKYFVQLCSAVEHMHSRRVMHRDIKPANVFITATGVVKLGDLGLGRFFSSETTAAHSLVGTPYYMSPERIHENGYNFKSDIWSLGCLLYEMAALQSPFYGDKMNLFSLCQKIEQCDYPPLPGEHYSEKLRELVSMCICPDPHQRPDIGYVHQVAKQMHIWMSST

Testis-specific serine/threonine-protein kinase 1 (Homo sapiens), sequence (Q9BXA7 whole entry, the tested form may be a part): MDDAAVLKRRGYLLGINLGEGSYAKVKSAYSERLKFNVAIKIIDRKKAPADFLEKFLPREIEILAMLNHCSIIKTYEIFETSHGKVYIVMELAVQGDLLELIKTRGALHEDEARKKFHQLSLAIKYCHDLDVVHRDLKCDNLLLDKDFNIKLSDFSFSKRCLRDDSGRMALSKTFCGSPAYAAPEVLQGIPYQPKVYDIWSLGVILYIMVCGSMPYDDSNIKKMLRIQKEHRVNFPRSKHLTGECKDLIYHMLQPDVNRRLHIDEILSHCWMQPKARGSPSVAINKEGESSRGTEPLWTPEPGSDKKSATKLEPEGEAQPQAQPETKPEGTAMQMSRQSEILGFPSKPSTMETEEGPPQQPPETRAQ
Fibroblast growth factor receptor 1 (Homo sapiens), sequence (P11362 22-822 limits assumed): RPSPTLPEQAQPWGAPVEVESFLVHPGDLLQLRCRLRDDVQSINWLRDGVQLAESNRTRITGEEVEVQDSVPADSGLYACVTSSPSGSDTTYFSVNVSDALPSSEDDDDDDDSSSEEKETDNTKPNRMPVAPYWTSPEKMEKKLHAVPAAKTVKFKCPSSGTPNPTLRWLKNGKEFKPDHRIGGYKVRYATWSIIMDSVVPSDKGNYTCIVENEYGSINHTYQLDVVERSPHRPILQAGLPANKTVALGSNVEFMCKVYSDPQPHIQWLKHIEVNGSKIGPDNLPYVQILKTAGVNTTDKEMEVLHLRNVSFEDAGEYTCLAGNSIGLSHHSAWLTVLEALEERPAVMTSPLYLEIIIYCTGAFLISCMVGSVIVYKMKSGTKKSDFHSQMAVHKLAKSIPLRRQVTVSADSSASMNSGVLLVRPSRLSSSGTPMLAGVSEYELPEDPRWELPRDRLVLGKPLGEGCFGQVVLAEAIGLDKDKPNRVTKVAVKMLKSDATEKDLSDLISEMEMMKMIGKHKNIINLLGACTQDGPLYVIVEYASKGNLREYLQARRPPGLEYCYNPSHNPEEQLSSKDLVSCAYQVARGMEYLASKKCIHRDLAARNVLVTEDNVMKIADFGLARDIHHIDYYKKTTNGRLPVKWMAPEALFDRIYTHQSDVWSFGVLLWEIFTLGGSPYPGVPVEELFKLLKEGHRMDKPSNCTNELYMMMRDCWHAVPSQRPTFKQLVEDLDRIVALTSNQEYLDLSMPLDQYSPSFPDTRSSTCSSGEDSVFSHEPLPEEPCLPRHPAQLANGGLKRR
RAC-alpha serine/threonine-protein kinase (Homo sapiens), sequence (P31749 whole entry): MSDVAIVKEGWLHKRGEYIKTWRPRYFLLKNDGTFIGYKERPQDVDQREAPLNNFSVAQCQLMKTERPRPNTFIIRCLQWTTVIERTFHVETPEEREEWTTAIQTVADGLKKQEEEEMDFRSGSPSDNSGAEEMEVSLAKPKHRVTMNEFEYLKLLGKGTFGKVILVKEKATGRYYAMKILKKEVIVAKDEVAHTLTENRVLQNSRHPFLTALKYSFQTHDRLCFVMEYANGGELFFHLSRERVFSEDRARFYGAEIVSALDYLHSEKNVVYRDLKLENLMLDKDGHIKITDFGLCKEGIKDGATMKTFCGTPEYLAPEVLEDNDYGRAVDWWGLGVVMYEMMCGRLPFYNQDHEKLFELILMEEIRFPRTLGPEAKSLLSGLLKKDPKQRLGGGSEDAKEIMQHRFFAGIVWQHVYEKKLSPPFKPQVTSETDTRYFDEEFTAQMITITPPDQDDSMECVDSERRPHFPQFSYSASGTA
Ephrin type-B receptor 2 (Homo sapiens), sequence (P29323 whole entry, the tested form may be a part): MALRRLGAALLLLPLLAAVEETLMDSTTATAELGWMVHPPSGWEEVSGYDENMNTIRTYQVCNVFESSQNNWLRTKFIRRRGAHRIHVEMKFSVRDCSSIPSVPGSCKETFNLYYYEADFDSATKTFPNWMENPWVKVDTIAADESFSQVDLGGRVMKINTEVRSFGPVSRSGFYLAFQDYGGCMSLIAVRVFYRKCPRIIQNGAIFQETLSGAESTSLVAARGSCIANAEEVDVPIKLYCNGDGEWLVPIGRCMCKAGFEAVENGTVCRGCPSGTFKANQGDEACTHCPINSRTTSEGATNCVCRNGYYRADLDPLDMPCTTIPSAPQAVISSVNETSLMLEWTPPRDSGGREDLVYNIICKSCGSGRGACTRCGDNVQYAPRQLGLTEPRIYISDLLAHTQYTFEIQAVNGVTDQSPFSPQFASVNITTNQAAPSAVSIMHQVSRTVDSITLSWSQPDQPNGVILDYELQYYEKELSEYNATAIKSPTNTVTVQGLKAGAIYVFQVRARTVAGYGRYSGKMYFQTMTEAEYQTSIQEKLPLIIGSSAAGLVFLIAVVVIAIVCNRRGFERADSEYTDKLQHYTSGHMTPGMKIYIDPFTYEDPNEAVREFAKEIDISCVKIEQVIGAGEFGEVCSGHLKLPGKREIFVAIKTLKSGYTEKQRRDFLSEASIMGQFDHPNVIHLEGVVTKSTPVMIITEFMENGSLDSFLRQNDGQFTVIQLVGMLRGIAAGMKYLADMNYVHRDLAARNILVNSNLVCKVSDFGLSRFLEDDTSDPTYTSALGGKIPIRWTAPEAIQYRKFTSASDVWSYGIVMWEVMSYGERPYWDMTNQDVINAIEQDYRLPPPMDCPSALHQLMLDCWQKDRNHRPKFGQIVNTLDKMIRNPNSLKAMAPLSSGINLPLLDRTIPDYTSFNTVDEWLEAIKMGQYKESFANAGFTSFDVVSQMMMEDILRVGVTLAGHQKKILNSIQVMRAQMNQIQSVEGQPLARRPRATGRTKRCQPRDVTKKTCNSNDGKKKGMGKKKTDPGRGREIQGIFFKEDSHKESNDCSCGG
Mitogen-activated protein kinase 12 (Homo sapiens), sequence (P53778 whole entry, the tested form may be a part): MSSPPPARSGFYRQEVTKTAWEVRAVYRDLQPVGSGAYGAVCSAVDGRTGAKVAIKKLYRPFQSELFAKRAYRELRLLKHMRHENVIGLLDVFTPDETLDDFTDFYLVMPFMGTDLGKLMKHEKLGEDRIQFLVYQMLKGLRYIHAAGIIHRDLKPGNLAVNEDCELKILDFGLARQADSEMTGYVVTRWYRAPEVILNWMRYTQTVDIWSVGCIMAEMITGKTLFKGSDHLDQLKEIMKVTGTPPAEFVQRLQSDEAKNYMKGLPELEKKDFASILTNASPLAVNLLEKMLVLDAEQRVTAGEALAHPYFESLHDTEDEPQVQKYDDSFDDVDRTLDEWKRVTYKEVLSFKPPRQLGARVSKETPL
Proto-oncogene tyrosine-protein kinase Src (Homo sapiens), sequence (P12931 2-536 limits assumed): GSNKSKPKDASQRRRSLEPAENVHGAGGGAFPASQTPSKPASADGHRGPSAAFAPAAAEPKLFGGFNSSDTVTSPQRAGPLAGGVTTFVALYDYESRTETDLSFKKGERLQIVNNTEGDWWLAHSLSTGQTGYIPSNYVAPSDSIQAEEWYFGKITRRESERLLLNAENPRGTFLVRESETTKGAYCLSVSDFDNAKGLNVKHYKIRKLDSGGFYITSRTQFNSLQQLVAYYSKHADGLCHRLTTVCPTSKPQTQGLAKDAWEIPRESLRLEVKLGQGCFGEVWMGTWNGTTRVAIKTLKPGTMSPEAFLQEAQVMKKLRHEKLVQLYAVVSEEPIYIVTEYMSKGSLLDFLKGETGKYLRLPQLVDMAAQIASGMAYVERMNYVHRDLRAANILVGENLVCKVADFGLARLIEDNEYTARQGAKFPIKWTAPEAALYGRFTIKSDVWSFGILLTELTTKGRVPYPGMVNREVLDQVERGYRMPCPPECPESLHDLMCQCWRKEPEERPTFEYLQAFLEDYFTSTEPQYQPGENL
Serine/threonine-protein kinase Chk1 (Homo sapiens), sequence (O14757 whole entry, the tested form may be a part): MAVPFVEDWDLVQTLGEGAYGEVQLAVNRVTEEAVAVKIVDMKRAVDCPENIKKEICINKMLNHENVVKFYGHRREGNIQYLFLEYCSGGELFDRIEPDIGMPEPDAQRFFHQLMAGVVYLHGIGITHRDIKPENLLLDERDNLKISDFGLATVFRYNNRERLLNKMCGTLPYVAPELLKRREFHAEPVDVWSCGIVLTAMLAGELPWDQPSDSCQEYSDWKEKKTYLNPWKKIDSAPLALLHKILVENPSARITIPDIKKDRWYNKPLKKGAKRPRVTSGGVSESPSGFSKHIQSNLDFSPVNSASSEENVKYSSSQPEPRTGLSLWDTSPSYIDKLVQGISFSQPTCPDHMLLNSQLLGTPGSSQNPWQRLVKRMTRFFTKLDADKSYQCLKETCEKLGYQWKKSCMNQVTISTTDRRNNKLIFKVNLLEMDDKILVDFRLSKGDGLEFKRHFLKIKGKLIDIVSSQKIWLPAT
MAP kinase-interacting serine/threonine-protein kinase 2 (Homo sapiens), sequence (Q9HBH9 whole entry, looked up, the tested form may be a part): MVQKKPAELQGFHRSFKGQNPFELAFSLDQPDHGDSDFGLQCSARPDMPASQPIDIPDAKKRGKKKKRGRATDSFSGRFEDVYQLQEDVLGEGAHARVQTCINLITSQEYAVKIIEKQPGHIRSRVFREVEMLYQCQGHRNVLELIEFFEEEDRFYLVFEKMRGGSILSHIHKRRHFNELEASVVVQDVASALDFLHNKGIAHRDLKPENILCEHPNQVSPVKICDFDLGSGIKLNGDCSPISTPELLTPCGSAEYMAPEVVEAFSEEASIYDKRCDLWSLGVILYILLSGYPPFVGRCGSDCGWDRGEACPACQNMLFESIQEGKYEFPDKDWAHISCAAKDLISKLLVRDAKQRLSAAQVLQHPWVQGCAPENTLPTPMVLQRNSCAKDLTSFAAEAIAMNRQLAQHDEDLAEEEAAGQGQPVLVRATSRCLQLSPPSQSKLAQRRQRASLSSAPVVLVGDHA

With `Cc1cc(=O)c2c(O)cc(O)c([C@H]3CCN(C)C[C@H]3O)c2o1` [ROHITUKINE] the Activity [1] was 81%, the inhibition [2] was 75% and the Stability [3] was “Stable”. It also gave an Activity [4] of 13%, an Activity [5] of 49% and an Activity (MAP4K2) of 17%. The Activity [6] was 75%, the Activity [7] was 96% and the Activity [8] was 54%. For the same compound, the Activity [9] was 66%, the Activity [10] was 43% and the GI50 [11] was 20 µM. The Activity [12] was 45%, the Activity [13] was 58% and the Stability [14] was “Stable”. The Activity [15] was 52%, the solubility thermodynamic [16] was 18.9 mg/mL (≈ 61.9 mM) and the Activity [17] was 81%. For the same compound, the Activity [18] was 27%, the Activity [19] was 76% and the Activity [20] was 41%. For the same compound, the Activity [21] was 88%, the Activity [22] was 16% and the inhibition [23] was 10%. For the same compound, the Activity [24] was 34%, the Activity [25] was 61% and the Activity [26] was 79%. The Activity [27] was 56%, the Activity [28] was 4% and the Activity [29] was 39%. The Activity [30] was 84%.
